Values joined by “and” are separate entries in the source; they are usually repeats but may differ in a detail not shown here. Identical values can stand only once.
Tests used:
BMX = target: T1, BMX (Homo sapiens, UniProt P51813); assay: Kinetic characterization with ADP-Glo kinase assay; assay type: biochemical; parameters: purchased Promega Corporation (USA) V4512; conditions: duplicate, mean ± S.D.
T1 sequence (P51813 1-675): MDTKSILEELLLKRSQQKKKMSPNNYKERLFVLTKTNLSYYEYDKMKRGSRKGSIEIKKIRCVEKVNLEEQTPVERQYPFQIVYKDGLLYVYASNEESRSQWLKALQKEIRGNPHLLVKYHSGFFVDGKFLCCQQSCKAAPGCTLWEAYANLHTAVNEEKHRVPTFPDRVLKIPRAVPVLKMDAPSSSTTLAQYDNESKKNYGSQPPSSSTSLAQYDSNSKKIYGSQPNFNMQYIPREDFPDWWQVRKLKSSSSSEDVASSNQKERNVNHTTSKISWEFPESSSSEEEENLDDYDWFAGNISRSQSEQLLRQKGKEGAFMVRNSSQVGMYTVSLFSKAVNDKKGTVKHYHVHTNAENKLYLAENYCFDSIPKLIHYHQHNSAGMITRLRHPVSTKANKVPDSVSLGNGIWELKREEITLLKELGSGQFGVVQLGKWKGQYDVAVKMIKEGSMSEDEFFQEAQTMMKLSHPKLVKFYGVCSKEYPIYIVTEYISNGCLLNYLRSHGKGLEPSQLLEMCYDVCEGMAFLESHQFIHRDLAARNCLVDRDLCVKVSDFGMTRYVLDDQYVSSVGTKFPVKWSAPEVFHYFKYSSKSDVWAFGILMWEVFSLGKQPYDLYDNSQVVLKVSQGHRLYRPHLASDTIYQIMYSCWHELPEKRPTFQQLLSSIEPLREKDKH
From the text: The inactivation of BMX occurs in a two-step process that is governed by two parameters: the affinity of the initial non-covalent binding, KI, and the rate of the subsequent covalent bond-forming reaction with the thiol of the cysteine residue, kinact. […]. […] Thus, taking into account that all the analogues have the same Michael acceptor moiety, the enhanced activity must be a result of the structural modifications introduced in the scaffold. […]
Kinetic characterization using an ADP-GLOTM kinase assay:
The BMX enzyme system (Catalog. V4512) and the ADP-GloTM kinase assay were purchased from Promega Corporation (USA). In each kinase reaction, the concentration of BMX was set to 4.5 ng/µL. The peptide substrate Poly (4:1 Glu, Tyr) and ATP concentrations were set to 0.25 mg/mL and 50 µM, respectively. BMX was pre-incubated with different inhibitor concentrations (10-fold serial dilutions, starting at 1 mM), over different time periods (2 - 60 min), before initiating the kinase reactions. Reactions were started by adding 2.5X Poly E4Y1/ATP mixture. The reactions were carried out in a 384-well plate, stopping all at the same time with the addition of 5 µL of ADP-GloTM reagent, to consume the remaining ATP within 40 min. Then, 10 µL of kinase detection reagent was added into the wells and incubated for 30 min to produce a luminescence signal. The signal was measured using an Infinite M200 […]
observed rate constants for inhibition (kobs), at different inhibitor concentrations, were determined from the slope of a semi-logarithmic plot of inhibition versus time, and re-plotted against inhibitor concentration (nM). The experimental values were fitted into a hyperbolic function using GraphPad Prism 8 ([…]), to obtain the KI, kinact, and kinact/KI, as described previously.12 […]
(Thermo Fisher Scientific) using gold-coated glass needles. […]

AXL = AXL (Homo sapiens, UniProt P30530); assay: KINOMEscan binding; conditions: read-out: % Ctrl AXL
AXL, sequence (P30530 26-894): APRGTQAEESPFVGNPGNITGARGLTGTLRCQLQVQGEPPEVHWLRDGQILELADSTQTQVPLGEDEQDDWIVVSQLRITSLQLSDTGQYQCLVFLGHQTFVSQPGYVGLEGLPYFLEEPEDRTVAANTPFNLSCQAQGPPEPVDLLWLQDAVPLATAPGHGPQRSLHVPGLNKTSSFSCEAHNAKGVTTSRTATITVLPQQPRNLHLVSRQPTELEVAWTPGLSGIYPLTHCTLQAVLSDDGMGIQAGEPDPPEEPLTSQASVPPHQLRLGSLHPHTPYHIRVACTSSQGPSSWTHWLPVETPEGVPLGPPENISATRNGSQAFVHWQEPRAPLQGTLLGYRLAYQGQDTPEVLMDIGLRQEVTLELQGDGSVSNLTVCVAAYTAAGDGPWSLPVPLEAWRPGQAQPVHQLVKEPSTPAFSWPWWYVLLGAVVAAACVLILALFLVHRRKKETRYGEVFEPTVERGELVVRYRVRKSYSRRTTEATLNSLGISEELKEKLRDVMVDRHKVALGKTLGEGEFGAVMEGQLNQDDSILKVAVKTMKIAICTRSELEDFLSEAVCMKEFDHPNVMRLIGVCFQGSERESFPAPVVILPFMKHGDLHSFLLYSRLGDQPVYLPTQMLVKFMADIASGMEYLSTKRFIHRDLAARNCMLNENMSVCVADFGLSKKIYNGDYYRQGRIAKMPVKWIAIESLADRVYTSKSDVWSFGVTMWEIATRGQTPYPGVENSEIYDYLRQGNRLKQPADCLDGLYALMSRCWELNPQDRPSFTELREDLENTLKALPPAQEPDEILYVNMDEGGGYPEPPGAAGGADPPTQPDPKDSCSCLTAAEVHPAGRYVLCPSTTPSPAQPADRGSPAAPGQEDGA
Experimental: Therefore, we included the whole TEC, EGFR and JAK family in our screening, and the Src family and Lkb1, which also have a cysteine within the same sequence alignment. We also included kinases involved in upstream (Src, FAK, PI3K, mTOR, PDK1) and downstream (Akt, PAK1, TAM) regulation of BMX signaling pathway and non-receptor tyrosine protein kinase Abl.
Kinome selectivity was performed with DiscoverX KINOMEscan™ technology.

Row | SMILES | k inact (BMX) | remaining binding at 1 µM (AXL) [%]
1 | C=CC(=O)Nc1cc(-n2c(=O)ccc3cnc4cc(-c5ccc(NS(C)(=O)=O)cc5)ccc4c32)ccc1C [JS24] | 0.335 min⁻¹ and 0.335 ± 0.001 min⁻¹ | –
2 | C=CC(=O)Nc1cc(C)cc(-n2c(=O)ccc3cnc4cc(-c5ccc(NS(C)(=O)=O)cc5)ccc4c32)c1 [JS25] | – | 93

— publication PMC8341910, “Structural and biophysical insights into the mode of covalent binding of rationally designed potent BMX inhibitors” (RSC Chemical Biology, 2020)
